Laboratory results as given in patent US9920010B2, “CXCR7 receptor modulators” (IDORSIA PHARMACEUTICALS LTD, priority 2013, dated 2018).
pEC50: −log10 of the molar value. Structures can show the parent of a compound that is named as a salt.

These compounds were tested against T1, CXCR7 (Homo sapiens, UniProt P25106) (assay: PathHunter CHO-K1 CXCR7 b-arrestin recruitment assay (CXCR7 agonistic activity)). Details: PathHunter CHO-K1 CXCR7 b-arrestin cell line.
T1 construct: host or cells: CHO-K1 (PathHunter CHO-K1 CXCR7 b-arrestin cell line, stably transfected)
T1 sequence (P25106 whole entry): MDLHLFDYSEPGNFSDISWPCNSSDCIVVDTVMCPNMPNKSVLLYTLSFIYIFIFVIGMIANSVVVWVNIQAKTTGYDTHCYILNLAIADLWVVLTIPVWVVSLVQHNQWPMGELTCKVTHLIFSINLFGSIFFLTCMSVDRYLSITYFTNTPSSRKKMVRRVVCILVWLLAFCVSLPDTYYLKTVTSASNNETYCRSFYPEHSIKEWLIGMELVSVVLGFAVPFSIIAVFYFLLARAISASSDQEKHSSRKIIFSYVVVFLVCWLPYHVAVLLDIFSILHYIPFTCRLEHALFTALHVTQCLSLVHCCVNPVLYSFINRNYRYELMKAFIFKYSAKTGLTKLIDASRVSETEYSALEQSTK
T1 sequence (P32121 whole entry partner): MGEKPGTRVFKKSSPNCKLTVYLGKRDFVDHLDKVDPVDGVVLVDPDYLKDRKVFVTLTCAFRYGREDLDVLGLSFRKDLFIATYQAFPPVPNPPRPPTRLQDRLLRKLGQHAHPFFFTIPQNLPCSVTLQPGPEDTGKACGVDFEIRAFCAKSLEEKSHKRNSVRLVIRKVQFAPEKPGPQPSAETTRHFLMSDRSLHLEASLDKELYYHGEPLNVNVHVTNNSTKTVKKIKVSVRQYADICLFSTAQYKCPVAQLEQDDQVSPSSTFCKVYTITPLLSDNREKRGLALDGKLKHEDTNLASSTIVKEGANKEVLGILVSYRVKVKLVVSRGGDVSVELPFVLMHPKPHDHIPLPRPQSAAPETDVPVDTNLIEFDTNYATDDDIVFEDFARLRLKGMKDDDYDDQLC
Type: cell-based
In short: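 Stable CHO-K1 line with C-terminally ProLink-tagged CXCR7 and β-arrestin 2–EA fusion; β-arrestin recruitment restores β-gal activity, read by chemiluminescence after 1 h RT detection. Cells seeded 24 h, starved in OPTIMEM 3–4 h, exposed to compounds 90 min at 37 °C in HBSS/HEPES/BSA. Geometric-mean EC50 from repeated measurements.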
In the case of `CN(C)CCN(Cc1ccccc1)C(=O)CNc1cccc2c1CCN(CC(F)(F)F)C2` [Example 85, N-Benzyl-N-(2-dimethylamino-ethyl)-2-[2-(2,2,2-trifluoro-ethyl)-1,2,3,4-tetrahydro-isoquinolin-5-ylamino]-acetamide], the pEC50 was 6.73.
Work on `CN(C)CCN(Cc1ccccc1C(F)(F)F)C(=O)CNc1cccc2c1CCN(CC(F)(F)F)C2` [Example 86, N-(2-Dimethylamino-ethyl)-2-[2-(2,2,2-trifluoro-ethyl)-1,2,3,4-tetrahydro-isoquinolin-5-ylamino]-N-(2-trifluoromethyl-benzyl)-acetamide] yielded a pEC50 of 7.64.
In the case of `CN(C)CCN(Cc1ccccc1C(F)(F)F)C(=O)CN(C)c1cccc2c1CCN(CC1CC1)C2` [Example 87, 2-[(2-Cyclopropylmethyl-1,2,3,4-tetrahydro-isoquinolin-5-yl)-methyl-amino]-N-(2-dimethylamino-ethyl)-N-(2-trifluoromethyl-benzyl)-acetamide], the pEC50 was 8.52.
`CN(C)CCN(Cc1ccccc1C(F)(F)F)C(=O)CNc1c(Cl)ccc2c1CCN(CC1CC1)C2` [Example 88, 2-(6-Chloro-2-cyclopropylmethyl-1,2,3,4-tetrahydro-isoquinolin-5-ylamino)-N-(2-dimethylamino-ethyl)-N-(2-trifluoromethyl-benzyl)-acetamide] gave a pEC50 of 7.96.
With `COc1ccc2c(c1NCC(=O)N(CCN(C)C)Cc1ccccc1C(F)(F)F)CCN(CC1CC1)C2` [Example 89, 2-(2-Cyclopropylmethyl-6-methoxy-1,2,3,4-tetrahydro-isoquinolin-5-ylamino)-N-(2-dimethylamino-ethyl)-N-(2-trifluoromethyl-benzyl)-acetamide] the pEC50 was 8.10.
Work on `CN(C)CCN(Cc1ccccc1C(F)(F)F)C(=O)CNc1cccc2c1C(C)(C)CN(C(=O)OC(C)(C)C)C2` [Example 90, 5-({[(2-Dimethylamino-ethyl)-(2-trifluoromethyl-benzyl)-carbamoyl]-methyl}-amino)-4,4-dimethyl-3,4-dihydro-1H-isoquinoline-2-carboxylic acid tert-butyl ester] yielded a pEC50 of 7.49.
Compound `CN(C)CCN(Cc1ccccc1C(F)(F)F)C(=O)CNc1cccc2c1C(C)(C)CN(CC1CC1)C2` [Example 91, 2-(2-Cyclopropylmethyl-4,4-dimethyl-1,2,3,4-tetrahydro-isoquinolin-5-ylamino)-N-(2-dimethylamino-ethyl)-N-(2-trifluoromethyl-benzyl)-acetamide] has a pEC50 of 9.00.
`CCN(Cc1ccccc1Cl)C(=O)/C=C/c1cccc2c1CCN(C(=O)OC(C)(C)C)C2` [Example 92, 5-{(E)-2-[(2-Chloro-benzyl)-ethyl-carbamoyl]-vinyl}-3,4-dihydro-1H-isoquinoline-2-carboxylic acid tert-butyl ester] gave a pEC50 of 6.38.
In the case of `CN(C)CCN(Cc1ccccc1)C(=O)/C=C/c1cccc2c1CCN(C(=O)OC(C)(C)C)C2` [Example 93, 5-{(E)-2-[Benzyl-(2-dimethylamino-ethyl)-carbamoyl]-vinyl}-3,4-dihydro-1H-isoquinoline-2-carboxylic acid tert-butyl ester], the pEC50 was 7.06.
`CCOC(=O)CN(Cc1ccccc1)C(=O)/C=C/c1cccc2c1CCN(C(=O)OC(C)(C)C)C2` [Example 94, 5-[(E)-2-(Benzyl-ethoxycarbonylmethyl-carbamoyl)-vinyl]-3,4-dihydro-1H-isoquinoline-2-carboxylic acid tert-butyl ester] showed a pEC50 of 6.34.
Compound `CC(C)(C)OC(=O)N1CCc2c(/C=C/C(=O)N(Cc3ccccc3)C3CCS(=O)(=O)C3)cccc2C1` (stereo not shown) [Example 95, 5-{(E)-2-[Benzyl-(1,1-dioxo-tetrahydro-1l6-thiophen-3-yl)-carbamoyl]-vinyl}-3,4-dihydro-1H-isoquinoline-2-carboxylic acid tert-butyl ester] has a pEC50 of 6.36.
With `CN1CCC(N(Cc2ccccc2C(F)(F)F)C(=O)/C=C/c2cccc3c2CCN(C(=O)OC(C)(C)C)C3)CC1` [Example 96, 5-{(E)-2-[(1-Methyl-piperidin-4-yl)-(2-trifluoromethyl-benzyl)-carbamoyl]-vinyl}-3,4-dihydro-1H-isoquinoline-2-carboxylic acid tert-butyl ester] the pEC50 was 6.60.
`C/C(=C\c1cccc2c1CCN(C(=O)OC(C)(C)C)C2)C(=O)N(CCN(C)C)Cc1ccccc1C(F)(F)F` [Example 97, 5-{(E)-2-[(2-Dimethylamino-ethyl)-(2-trifluoromethyl-benzyl)-carbamoyl]-propenyl}-3,4-dihydro-1H-isoquinoline-2-carboxylic acid tert-butyl ester] showed a pEC50 of 6.44.
`CN(C)CCN(Cc1ccccc1Cl)C(=O)CCc1cccc2c1CCN(C(=O)OC(C)(C)C)C2` [Example 98, 5-{2-[(2-Chloro-benzyl)-(2-dimethylamino-ethyl)-carbamoyl]-ethyl}-3,4-dihydro-1H-isoquinoline-2-carboxylic acid tert-butyl ester] was tested, and the pEC50 was 6.65.
In the case of `CN(C)CCN(Cc1ccccc1C(F)(F)F)C(=O)CCc1cccc2c1CCN(C(=O)OC(C)(C)C)C2` [Example 99, 5-{2-[(2-Dimethylamino-ethyl)-(2-trifluoromethyl-benzyl)-carbamoyl]-ethyl}-3,4-dihydro-1H-isoquinoline-2-carboxylic acid tert-butyl ester], the pEC50 was 6.75.
In the case of `CN1CCC(N(Cc2ccccc2C(F)(F)F)C(=O)CCc2cccc3c2CCN(C(=O)OC(C)(C)C)C3)CC1` [Example 100, 5-{2-[(1-Methyl-piperidin-4-yl)-(2-trifluoromethyl-benzyl)-carbamoyl]-ethyl}-3,4-dihydro-1H-isoquinoline-2-carboxylic acid tert-butyl ester], the pEC50 was 6.42.
With `CN(C)CCN(Cc1ccccc1)C(=O)COc1cccc2c1CCN(C(=O)OC(C)(C)C)C2` [Example 101, 5-{[Benzyl-(2-dimethylamino-ethyl)-carbamoyl]-methoxy}-3,4-dihydro-1H-isoquinoline-2-carboxylic acid tert-butyl ester] the pEC50 was 6.83.
With `CCN1CCc2c(cccc2N(CC)CC(=O)N(CCN(C)C)Cc2ccccc2)C1` [Example 102, N-Benzyl-N-(2-dimethylamino-ethyl)-2-[ethyl-(2-ethyl-1,2,3,4-tetrahydro-isoquinolin-5-yl)-amino]-acetamide] the pEC50 was 6.43.
Work on `CCS(=O)(=O)N1CCc2c(cccc2NCC(=O)N(CCN(C)C)Cc2ccccc2C(F)(F)F)C1` [Example 103, N-(2-Dimethylamino-ethyl)-2-(2-ethanesulfonyl-1,2,3,4-tetrahydro-isoquinolin-5-ylamino)-N-(2-trifluoromethyl-benzyl)-acetamide] yielded a pEC50 of 7.01.
In the case of `CN1CCC(N(Cc2ccccc2C(F)(F)F)C(=O)CNc2cccc3c2CCN(CC2CC2)C3)CC1` [Example 105, 2-(2-Cyclopropylmethyl-1,2,3,4-tetrahydro-isoquinolin-5-ylamino)-N-(1-methyl-piperidin-4-yl)-N-(2-trifluoromethyl-benzyl)-acetamide], the pEC50 was 8.05.
`CC(=O)N1CCc2c(cccc2NCC(=O)N(CCN(C)C)Cc2ccccc2)C1` [Example 108, 2-(2-Acetyl-1,2,3,4-tetrahydro-isoquinolin-5-ylamino)-N-benzyl-N-(2-dimethylamino-ethyl)-acetamide] showed a pEC50 of 7.28.
Work on `COC(=O)N1CCc2c(cccc2NCC(=O)N(CCN(C)C)Cc2ccccc2)C1` [Example 113, 5-({[Benzyl-(2-dimethylamino-ethyl)-carbamoyl]-methyl}-amino)-3,4-dihydro-1H-isoquinoline-2-carboxylic acid methyl ester] yielded a pEC50 of 7.59.
For `O=C(/C=C/c1cccc2c1CCN(CC1CC1)C2)N(CCO)Cc1ccccc1` [Example 138, (E)-N-Benzyl-3-(2-cyclopropylmethyl-1,2,3,4-tetrahydro-isoquinolin-5-yl)-N-(2-hydroxy-ethyl)-acrylamide], the pEC50 was 7.26.
`NC(=O)CCN(Cc1ccccc1)C(=O)/C=C/c1cccc2c1CCN(CC1CC1)C2` [Example 140, (E)-N-Benzyl-N-(2-carbamoyl-ethyl)-3-(2-cyclopropylmethyl-1,2,3,4-tetrahydro-isoquinolin-5-yl)-acrylamide dihydrochloride] was tested, and the pEC50 was 7.27.
`CCC(=O)N1CCc2c(CCC(=O)N(CCN(C)C)Cc3ccccc3)cccc2C1` [Example 162, N-Benzyl-N-(2-dimethylamino-ethyl)-3-(2-propionyl-1,2,3,4-tetrahydro-isoquinolin-5-yl)-propionamide] showed a pEC50 of 7.34.
Compound `COC(=O)N1CCc2c(cccc2OCC(=O)N(CCN(C)C)Cc2ccccc2)C1` [Example 167, 5-{[Benzyl-(2-dimethylamino-ethyl)-carbamoyl]-methoxy}-3,4-dihydro-1H-isoquinoline-2-carboxylic acid methyl ester] has a pEC50 of 7.41.
Compound `CN1CCc2c(cccc2NCC(=O)N(Cc2ccccc2)CC2CC2)C1` [Example 175, N-Benzyl-N-cyclopropylmethyl-2-(2-methyl-1,2,3,4-tetrahydro-isoquinolin-5-ylamino)-acetamide] has a pEC50 of 6.47.
`CNCCN(Cc1ccccc1C(F)(F)F)C(=O)CNc1cccc2c1CCN(CC1CC1)C2` [Example 179, 2-(2-Cyclopropylmethyl-1,2,3,4-tetrahydro-isoquinolin-5-ylamino)-N-(2-methylamino-ethyl)-N-(2-trifluoromethyl-benzyl)-acetamide] was tested, and the pEC50 was 8.52.
With `CN(C)CCN(Cc1ccccc1)C(=O)CNc1cccc2c1CN(C(=O)OC(C)(C)C)CC2` [Example 181, 8-({[Benzyl-(2-dimethylamino-ethyl)-carbamoyl]-methyl}-amino)-3,4-dihydro-1H-isoquinoline-2-carboxylic acid tert-butyl ester] the pEC50 was 6.93.
For `CCN1CCc2cccc(NCC(=O)N(CCN(C)C)Cc3ccccc3)c2C1` [Example 185, N-Benzyl-N-(2-dimethylamino-ethyl)-2-(2-ethyl-1,2,3,4-tetrahydro-isoquinolin-8-ylamino)-acetamide], the pEC50 was 7.10.
`CCC(=O)N1CCc2cccc(NCC(=O)N(CCN(C)C)Cc3ccccc3)c2C1` [Example 188, N-Benzyl-N-(2-dimethylamino-ethyl)-2-(2-propionyl-1,2,3,4-tetrahydro-isoquinolin-8-ylamino)-acetamide] was tested, and the pEC50 was 7.15.
